Assays:
[1] = test system: PAR-1 gene promotor; experiment: Thrombin-stimulated PAR-1 gene induction, luciferase reporter assay in HMEC; assay type: cell-based, human; settings: 10 nanomolar thrombin, four hours, pertussis toxin 100 nanograms per milliliter pretreatment
From the text: Thrombin treatment of cells induces the expression of the gene encoding its GPCR, PAR-1. This induction is mediated through the PAR-1 gene promotor sequence. The PAR-1 gene promotor sequence can be made to direct the expression of a reporter gene such as, the luciferase gene, thereby providing a means of observing the level of PAR-1 gene induction occurring in response to thrombin treatment of cells.
A PAR-1 promoter sequence comprising 1.82 kilobases was inserted upstream of the gene, Firefly (Photinus pyralis) luciferase in a pGL2 vector DNA to generate the plasmid DNA, PCR-1/Luc. The sea pansy (Renilla reniformis) luciferase gene operably linked to the Herpes Simplex Virus-Thymidine Kinase promoter (TK) in a pRL vector DNA (TK/pRL) served as an internal control to correct for experimental variation. HMEC were co-transfected with 100 nanograms each of a reporter DNA, PCR-1/Luc or TK/pRL, and one of pcDNA3.1, pcDNA-Gαi, or pcDNA-GαiR using protocols and reagents described in the previous Example. Twenty four hours post-transfection, HMEC were incubated in serum-free culture media (Dulbecco's Modified Eagles Medium, DMEM) for 2 hr at 37° C., following which, thrombin was added to the culture media at a concentration of 10 nanomolar. The cells were then incubated at 37° C. for four hours and lysed. […]

[2] = target: thrombin receptor, PAR-1, in human microvascular endothelial cells (HMEC) (human) (UniProt P25116); experiment: cell-based or functional assay
Sequence of UniProt P25116 (P25116 42-425): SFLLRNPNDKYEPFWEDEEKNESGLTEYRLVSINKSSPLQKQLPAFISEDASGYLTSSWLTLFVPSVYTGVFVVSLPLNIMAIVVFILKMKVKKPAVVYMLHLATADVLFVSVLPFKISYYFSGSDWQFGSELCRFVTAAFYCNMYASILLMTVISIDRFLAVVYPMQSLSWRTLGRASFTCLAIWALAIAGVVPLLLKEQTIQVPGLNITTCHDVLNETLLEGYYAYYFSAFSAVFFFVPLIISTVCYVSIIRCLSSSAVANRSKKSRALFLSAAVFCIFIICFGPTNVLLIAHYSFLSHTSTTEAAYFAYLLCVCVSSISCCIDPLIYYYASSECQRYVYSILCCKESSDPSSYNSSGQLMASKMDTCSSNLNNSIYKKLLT

Substance	level of luciferase activity after thrombin treatment (PAR-1 gene induction) [1]	decrease in transendothelial electrical resistance (TEER) following thrombin stimulation, HMEC [2] [%]
Pertussis toxin	blocked the increase in luciferase levels	
Gαs carboxy terminal peptide encoded by minigene pcDNA-Gαs (from UniProt P63092 384-394)		23

Source: patent US20030162258A1, “Inhibitors of G protein-mediated signaling, methods of making them, and uses thereof” (Northwestern University, priority 2000, published 2003)
